US7491794B2, “Macrocyclic compounds as inhibitors of viral replication” (Intermune, Inc., priority 2003, dated 2009)

Tests used:
[1] = target: T1, NS3-NS4 protease (Hepatitis C virus genotype 1a, UniProt P27958); test: NS3-NS4 protease assay / NS3 inhibition assay, Section C; assay type: biochemical; settings: read-out: NS3-NS4 IC50
T1 construct: Recombinant E. coli or Baculovirus full-length NS3 was diluted to 3.33 μM with assay buffer; made in house; host or cells: E. coli or baculovirus (BV) system
Method: NS3 complex formation with NS4A-2.
(§1) Recombinant E. coli or Baculovirus full-length NS3 was diluted to 3.33 μM with assay buffer and transfered material to an eppendorf tube and place in water bath in 4° C. refrigerator. The appropriate amount of NS4A-2 to 8.3 mM in assay buffer was added to equal the volume of NS3 in step 2.1.1 (conversion factor −3.8 mg/272 μL assay buffer). The material was transferred to an eppendorf tube and place in water bath in 4° C. refrigerator.
(§2) After equilibration to 4° C., equal volumes of NS3 and NS4A-2 solutions were combined in an eppendorf tube, mix gently with a manual pipettor, and incubate mixture for 15 minutes in the 4° C. water bath. Final concentrations in the mixture are 1.67CM NS3, 4.15 mM NS4A-2 (2485-fold molar excess NS4A-2).
After 15 minutes at 4° C., the NS3/NS4A-2 eppendorf tube was removed and place it in a room temperature water bath for 10 minutes. NS3/NS4A-2 was alliquoted at appropriate volumes and store at −80° C. (E. coli NS3 run at 2 nM in assay, aliquot at 25 μL. BV NS3 run at 3 nM in assay, aliquot at 30 μL).
Step 2.2.5. Sample compounds were dissolved to 10 mM in DMSO then diluted to 2.5 mM (1:4) in DMSO.
Step 2.2.6. The E. coli. NS3/NS4A-2 was diluted to 4 nM NS3 (1:417.5 of […] stock−18 μL 1.67 μM stock+7497 μL assay buffer). The BV NS3/NS4A-2 was diluted to 6 nM NS3 (1:278.3 of 1.67 μM stock−24 μL 1.67 μM stock+6655 μL assay buffer).
Step 2.2.7. Using the manual multichannel pipettor, and being careful not to introduce bubbles into the plate, 50 μL assay buffer were added to wells A01-H01 of a black Costar 96-well polypropylene storage plate.
Step 2.2.8. Using the manual multichannel pipettor, and being careful not to introduce bubbles into the plate, 50 μL of diluted NS3/NS4A-2 from step 2.2.6 were added to wells A02-H12 of plate in step 2.2.7.
Step 2.2.9. Using the manual multichannel pipettor, and being careful not to introduce bubbles into the plate, 25 μL of the wells in drug dilution plate in step 2.2.5 were transferred to corresponding wells in assay plate in step 2.2.8. The tips on multichannel pipettor were changed for each row of compounds transferred.
Step 2.2.10. Using the manual multichannel pipettor, and being careful not to introduce bubbles into the plate, the contents of the wells from the assay plate in step 2.2.9 were mixed by aspirating and dispensing 35 μL of the 75 μL in each well five times. The tips on the multichannel pipettor were changed for each row of wells mixed.
Step 2.2.11. The plate was covered with a polystyrene plate lid, and the plate from step 2.2.10 containing NS3 protease and sample compounds was pre-incubated 10 minutes at room temperature.
While the plate from step 2.2.11 was pre-incubating, the RETS1 substrate was diluted in a 15 mL polypropylene centrifuge tube. The RETS1 substrate was diluted to 8 μM (1:80.75 of 646 μM stock−65 μL 646 μM stock+5184 μL assay buffer).
After the plate in step 2.2.11 was done pre-incubating, and using the manual multichannel, 25 μL of substrate were added to all wells on the plate. The contents of the wells of plate were quickly mixed, as in step 2.2.10, but mixing 65 μL of the 100 μL in the wells.
(§3) The plate was read in kinetic mode on the Molecular Devices SpectraMax Gemini XS plate reader. Reader settings: Read time: 30 minutes, Interval: 36 seconds, Reads: 51, Excitation λ: 335 nm, Emission λ: 495 nm, cutoff: 475 nm, Automix: off, Calibrate: once, PMT: high, Reads/well: 6, Vmax pts: 21 or 28/51 depending on length of linearity of reaction.
IC50s were determined using a four parameter curve fit equation, and converted to Ki's using the following Km's:
(§4) where Ki=IC50/(1+[S]/Km))

[2] = target: T1, NS3-NS4 protease; test: NS3-NS4 protease assay / NS3 inhibition assay, Section D; assay type: biochemical
Method: NS3-NS4 Protease Assay NS3 complex formation with NS4A-2.
as §1, with “transferred” for “transfered”
as §2, with “1.67 μM” for “1.67CM”
After 15 minutes at 4° C., the NS3/NS4A-2 eppendorf tube was removed and placed in a room temperature water bath for 10 minutes. NS3/NS4A-2 was alliquoted at appropriate volumes and store at −80° C. (E. coli NS3 run at 2 nM in assay, aliquot at 25 μL. BV NS3 run at 3 nM in assay, aliquot at 30 μL).
Sample compounds were dissolved to 10 mM in DMSO then diluted to 2.5 mM (1:4) in DMSO.
The E. coli. NS3/NS4A-2 was diluted to 4 nM NS3 (1:417.5 of 1.67 μM stock−18 μL 1.67 μM stock+7497 μL assay buffer).
The BV NS3/NS4A-2 was diluted to 6 nM NS3 (1:278.3 of 1.67 μM stock−24 μL 1.67 μM stock+6655 μL assay buffer).
Using the manual multichannel pipettor, careful not to introduce bubbles into the plate, add 50 μL assay buffer to wells A01-H01 of a black Costar 96-well polypropylene storage plate.
Using the manual multichannel pipettor, careful not to introduce bubbles into the plate, add 50 μL of diluted NS3/NS4A-2 from step 2.2.6 to wells A02-H12 of plate in step 2.2.7.
Using the manual multichannel pipettor, careful not to introduce bubbles into the plate, transfer 25 μL of the wells in drug dilution plate in step 2.2.5 to corresponding wells in assay plate in step 2.2.8. Change tips on multichannel pipettor for each row of compounds transferred.
Using the manual multichannel pipettor, careful not to introduce bubbles into the plate, mix the wells from the assay plate in step 2.2.9 by aspirating and dispensing 35 μL of the 75 μL in each well five times. Change tips on multichannel pipettor for each row of wells mixed.
Cover plate with a polystyrene plate lid and pre-incubate the plate from step 2.2.10 containing NS3 protease and sample compounds 10 minutes at room temperature.
While plate from step 2.2.11 is pre-incubating, dilute RETS1 substrate in a 15 mL polypropylene centrifuge tube.
Dilute RETS1 substrate to 8 μM (1:80.75 of 646 μM stock−65 μL 646 μM stock+5184 μL assay buffer).
After the plate in step is done pre-incubating, and using the manual multichannel, add 25 μL of substrate to all wells on the plate. Quickly mix the plate as in step 2.2.10, mixing 65 μL of the 100 μL in the wells.
as §3, with “Read the” for “The”, “plate” for “plate was read”, “k:” for “λ:”
IC50s are determined using a four parameter curve fit equation, and converted to Ki's using the following Km's:
as §4

T1 sequence (P27958 1027-1657): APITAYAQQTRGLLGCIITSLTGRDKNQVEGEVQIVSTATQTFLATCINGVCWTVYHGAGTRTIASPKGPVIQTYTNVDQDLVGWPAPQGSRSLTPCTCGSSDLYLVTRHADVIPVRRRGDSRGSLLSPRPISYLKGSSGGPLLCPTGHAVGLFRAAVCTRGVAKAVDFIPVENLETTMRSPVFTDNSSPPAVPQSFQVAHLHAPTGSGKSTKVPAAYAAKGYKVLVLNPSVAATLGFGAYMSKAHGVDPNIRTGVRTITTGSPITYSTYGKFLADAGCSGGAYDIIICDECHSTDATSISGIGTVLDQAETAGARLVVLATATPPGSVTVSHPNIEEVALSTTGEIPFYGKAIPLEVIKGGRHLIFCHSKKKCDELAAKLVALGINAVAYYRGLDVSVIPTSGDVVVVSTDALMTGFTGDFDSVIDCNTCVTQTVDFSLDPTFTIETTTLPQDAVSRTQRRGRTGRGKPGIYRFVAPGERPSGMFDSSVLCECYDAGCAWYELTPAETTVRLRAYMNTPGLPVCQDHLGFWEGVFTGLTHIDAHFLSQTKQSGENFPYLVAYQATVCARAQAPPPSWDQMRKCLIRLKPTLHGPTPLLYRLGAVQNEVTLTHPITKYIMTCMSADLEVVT

SMILES	IC50 [2] [nM]	IC50 [1] [nM]
CC(C)(C)OC(=O)N[C@H]1CCCCC/C=C\[C@@H]2C[C@@]2(C(=O)NS(=O)(=O)Nc2nccs2)NC(=O)[C@@H]2C[C@@H](OC(=O)N3Cc4ccccc4C3)CN2C1=O [Compound 105, (1S,4R,6S,14S,18R)-1,3-Dihydro-isoindole-2-carboxylic acid 14-tert-butoxycarbonylamino-4-(thiazol-2-ylaminosulfonylaminocarbonyl)-2,15-dioxo-3,16-diaza-tricyclo[14.3.0.0^4,6]nonadec-7-en-18-yl ester]		< 100
CC(C)(C)OC(=O)N[C@H]1CCCCC/C=C\[C@@H]2C[C@@]2(C(=O)NS(=O)(=O)N2CCOCC2)NC(=O)[C@@H]2C[C@@H](OC(=O)N3CCc4ccccc4C3CN3CCCCC3)CN2C1=O (stereo partly drawn) [Compound 110, (1S,4R,6S,14S,18R)-1-Piperidin-1-ylmethyl-3,4-dihydro-1H-isoquinoline-2-carboxylic acid 14-tert-butoxycarbonylamino-2,15-dioxo-4-(morpholino-sulfonylaminocarbonyl)-3,16-diaza-tricyclo[14.3.0.0^4,6]nonadec-7-en-18-yl ester]		< 1000
CC(C)(C)NC(=O)N[C@H]1CCCCC/C=C\[C@@H]2C[C@@]2(C(=O)NS(=O)(=O)C2CC2)NC(=O)[C@@H]2C[C@@H](NC(=O)c3cc4ccccc4s3)CN2C1=O [Example 54]	< 100	
CC(C)(C)NC(=O)N[C@H]1CCCCC/C=C\[C@@H]2C[C@@]2(C(=O)NS(=O)(=O)C2CC2)NC(=O)[C@@H]2C[C@@H](NC(=O)c3sc4cc(F)ccc4c3Cl)CN2C1=O [Example 55]	< 100	
COc1ccc(C(=O)N[C@@H]2C[C@H]3C(=O)N[C@]4(C(=O)NS(=O)(=O)C5CC5)C[C@H]4/C=C\CCCCC[C@H](NC(=O)OC4CCCC4)C(=O)N3C2)cc1 [Example 56]	< 100	
COc1ccc(C(=O)N[C@@H]2C[C@H]3C(=O)N[C@]4(C(=O)NS(=O)(=O)C5CC5)C[C@H]4/C=C\CCCCC[C@H](NC(=O)OC4CCCC4)C(=O)N3C2)cc1C(F)(F)F [Example 57]	< 100	
COc1ccc(C(=O)N[C@@H]2C[C@H]3C(=O)N[C@]4(C(=O)NS(=O)(=O)C5CC5)C[C@H]4/C=C\CCCCC[C@H](NC(=O)NC4CCCC4)C(=O)N3C2)cc1C(F)(F)F [Example 58]	< 100	
CC(C)(C)OC(=O)N[C@H]1CCCCC/C=C\[C@@H]2C[C@@]2(C(=O)O)NC(=O)[C@@H]2C[C@@H](NC(=O)c3cc4ccccc4s3)CN2C1=O [Example 59]	< 10000	
CC(C)(C)OC(=O)N[C@H]1CCCCC/C=C\[C@@H]2C[C@@]2(C(=O)O)NC(=O)[C@@H]2C[C@@H](NC(=O)c3ccccc3)CN2C1=O [Example 60]	< 10000	

Further lines, with some results ahead:

IC50 [2] [nM]	SMILES	IC50 [1] [nM]
< 10000	COc1ccc(C(=O)N[C@@H]2C[C@H]3C(=O)N[C@]4(C(=O)O)C[C@H]4/C=C\CCCCC[C@H](NC(=O)OC(C)(C)C)C(=O)N3C2)cc1 [Example 61]	
< 1000	CC(C)(C)OC(=O)N[C@H]1CCCCC/C=C\[C@@H]2C[C@@]2(C(=O)O)NC(=O)[C@@H]2C[C@@H](NC(=O)c3ccc4ccccc4c3)CN2C1=O [Example 62]	
< 1000	CC(C)(C)OC(=O)N[C@H]1CCCCC/C=C\[C@@H]2C[C@@]2(C(=O)O)NC(=O)[C@@H]2C[C@@H](NC(=O)c3cc4ccccc4[nH]3)CN2C1=O [Example 63]	
< 1000	CC(C)(C)OC(=O)N[C@H]1CCCCC/C=C\[C@@H]2C[C@@]2(C(=O)O)NC(=O)[C@@H]2C[C@@H](NC(=O)c3sc4ccccc4c3Cl)CN2C1=O [Example 64]	
< 1000	CC(C)(C)OC(=O)N[C@H]1CCCCC/C=C\[C@@H]2C[C@@]2(C(=O)O)NC(=O)[C@@H]2C[C@@H](NC(=O)c3sc4cc(F)ccc4c3Cl)CN2C1=O [Example 65]	
< 1000	CC(C)(C)OC(=O)N[C@H]1CCCCC/C=C\[C@@H]2C[C@@]2(C(=O)O)NC(=O)[C@@H]2C[C@@H](NC(=O)c3cc4ccccc4o3)CN2C1=O [Example 66]	
< 10000	CC(C)(C)OC(=O)N[C@H]1CCCCC/C=C\[C@@H]2C[C@@]2(C(=O)O)NC(=O)[C@@H]2C[C@@H](NC(=O)c3ccc4cccnc4c3)CN2C1=O [Example 67]	
< 10000	CCc1ccc(C(=O)N[C@@H]2C[C@H]3C(=O)N[C@]4(C(=O)O)C[C@H]4/C=C\CCCCC[C@H](NC(=O)OC(C)(C)C)C(=O)N3C2)cc1 [Example 68]	
< 10000	COc1ccc(C(=O)N[C@@H]2C[C@H]3C(=O)N[C@]4(C(=O)O)C[C@H]4/C=C\CCCCC[C@H](NC(=O)OC(C)(C)C)C(=O)N3C2)cc1C(F)(F)F [Example 69]	
